# Source: US20100240589A1, “DIASTEREOMERIC PEPTIDES USEFUL AS INHIBITORS OF MEMBRANE PROTEIN ASSEMBLY” (YEDA RESEARCH AND DEVELOPMENT CO., LTD. AT THE WEIZMANN …, priority 2003, published 2010)
# Where two headings read alike, the source gives them in different places. Ends that are not written are not given here.
# How the values were obtained:
# [1] = tested on: fusion of HIV-1 gp120-41 expressing TF228 cells with CD4+CXCR4+3T3 mouse fibroblasts; experiment: Dye transfer fusion assay (cell-cell fusion); format: cell-based; conditions: for inhibition of HIV-1 mediated cell-cell fusion: dye transfer, co-culture 2 hours at 37° C.; for inhibition compared with the wild-type peptide: dye transfer fusion assay
# Description: Peptide inhibition of cell-cell fusion was assayed by monitoring the redistribution of two fluorescent probes: a water-soluble probe and a lipophilic probe, between target and effector cells upon their co-incubation with these probes (Munoz-Barroso I., et al., 1998, J. Cell Biol. 140: 315-323). The HIV-1 gp120-41 expressing TF228 cells (Jonak, Z. L., et al., 1993, AIDS Res. Hum. Retrovir. 9:23-32) were labeled with either calcein or a green fluorescent fatty acid as follows: HIV-1 gp120-41 expressing TF228 cells were incubated with 1 μM calcein for 60 minutes at 37° C., and then washed and resuspended at 10^5 cells/ml in RPMI medium. Alternatively, the HIV-1 gp120-41 expressing TF228 cells were labeled with the fatty acid 4,4-difluoro-5-methyl-4-bora-3a, 4a-diaza-s-indacene-3-dodecanoic acid (C1-BODIPY-C12; (Molecular Probes, Eugene, Oreg.)) as follows: HIV-1 gp120-41 expressing TF228 cells were seeded at 10^5 cells/ml in RPMI medium containing 10 mg/ml of the C1-BODIPY-C12 and grown for three days prior to the experiment. The fatty acid was eventually metabolized into phospholipid, primarily phosphatidylcholine. The cells where then washed and resuspended at 10^5 cells/ml. The target cells, CD4+CXCR4+3T3 mouse fibroblasts, were plated at 10^5 cells/ml the night before the experiment. The next day, the CD4+CXCR4+3T3 cells were labeled with 20 μM [5-(and -6) ((4-Chloromethyl)benzoyl)amino)) tetramethylrhodamine (CMTMR) for one hour at 37° C., washed several times and combined with the effector cells (1:3 target-effector cell ratio). Different concentrations of peptides, dissolved in PBS or Tris buffer, were then added. The cells were co-cultured for 2 hours at 37° C. in 12 well plates (Costar, Cambridge, Mass.). Phase and fluorescent images were collected using an Olympus IX70 coupled to a CCD camera (Princeton Instruments, Trenton, N.J.) with a 20× objective lens. An 82000 optical filter cube (Chroma Technology Corp., Brattleboro, Vt.) was used for the excitation of calcein (494/517), BODIPY (500/510), and CMTMR (541/565). Three images per well were collected and then analyzed using metamorph software (Universal Imaging, WestChester, Pa.) for dye transfer from the donor to the acceptor cell. The scoring of fusion events was conducted as described by Munoz-Barroso et al. (ibid.).
# [2] = molecular target: wt-fusion peptide (N-terminal 33 segment of gp41) (Human immunodeficiency virus type 1 group M subtype B, UniProt P03377); conditions: NBD-wt donor 0.05 μM, Rho acceptor 0.025-0.35 μM, SUV 400 μM
# Description: The self-association of the peptides in their membrane-bound state was monitored by employing resonance energy transfer measurements. Fluorescence resonance energy transfer was measured using NBD-labeled peptides serving as donors and Rho (rhodamine)-labeled peptides serving as energy acceptors. Fluorescence spectra were obtained at room temperature with excitation set at 467 nm using a 10 nm slit width. In a typical experiment, donor peptide (final concentration 0.04 μM) was added to a dispersion of phosphatidylcholine/cholesterol (PC/Chol; 10:1 w/w) small unilamellar vesicles (SUV; 224 μM) in PBS, followed by the addition of acceptor peptide in several sequential doses. Fluorescence spectra were obtained before and after addition of the acceptor. The efficiency of energy transfer (E) was determined by measuring the decrease in the quantum yield of the donor as a result of the presence of acceptor. E was determined experimentally from the ratio of the fluorescence intensities of the donor in the presence (Ida) and in the absence (Id) of the acceptor, at the donor's maximum emission wavelength. The percentage of transfer efficiency (E), is given by:
# The contribution of buffer and vesicles was subtracted from all measurements. […] The acceptor-peptide was added only after the donor-peptide was already bound to the membrane, thus decreasing association in solution. […]
# activated T-cells = experiment: Binding of NBD-labeled fusion peptides to T-cells (confocal fluorescence microscopy); format: cell-based; design: dose or concentration left out as unconfirmed; conditions: 30 minutes, room temperature
# Description: Nitrobenzofurazane (NBD)-labeled wt-fusion peptide or NBD-labeled diastereomeric fusion peptide (herein designated IFFA) were studied for their binding to activated T-cells as follows: Activated T-cells (10,000/ml) were incubated for 30 minutes at room temperature with NBD labeled wt- or IFFA-fusion peptides (0.5 mM final concentration). The cells were washed twice with PBS (100 ml) in order to remove excess of unbound peptide. The cells were then observed under the fluorescent confocal microscope. NBD excitation was at 488 nm with the laser set at 2% power to prevent bleaching of the fluorophore. Fluorescence data was collected from 525 nm and up.
# [3] = tested on: ToxR GPA construct in FHK12 bacteria; experiment: ToxR receptor expression levels (Western blot); format: cell-based; conditions: anti maltose binding protein
# Description: Bacteria FHK12 cells were grown in the presence or absence of 2D-GPA, 10 μl samples were added to 2× sample buffer and boiled for 5 minutes. The samples were separated on a 12% SDS-PAGE and thereafter were blotted. The primary antibody used was anti maltose binding protein. The detection was performed with Phototope-HRP Western Blot Detection System (Cell Signaling Technology, MA, USA).
# wt-GPA = molecular target: T1, wt-GPA (Homo sapiens, UniProt P02724); experiment: FRET between wt-GPA and diastereomer in LUV; format: binding; conditions: donor 0.1 μM, acceptor 0.01-0.05 μM, LUV 340 μM
# T1 construct: ITLIIFGVMAGVIGT; fluorophore label (NBD); made in house; host or cells: chemical peptide synthesis
# Description: Wild type (wt)-GPA and the 2D-GPA analog were synthetically labeled with Rhodamine and NBD, respectively, and fluorescent resonance energy transfer (FRET) experiments were performed with NBD-labeled peptides serving as energy donors and Rhodamine-labeled peptides serving as energy acceptors. […] In a typical experiment, a donor peptide (final concentration 0.1 μM) was added to a dispersion of large unilamellar vesicles (LUV; 340 μM) in PBS. This was followed by the addition of an acceptor peptide in increasing doses ranging from 0.01 to 0.05 μM. At this peptide to lipid ratios, complete membrane binding is expected for all the transmembrane peptides. […] The percentage of transfer efficiency (E), is given by:
# The R0 for this pair of donor-acceptor fluorophores is around 51 Å.
# FHK12 bacterial membrane = experiment: Binding of NBD labeled peptide to bacterial membrane (confocal); format: cell-based; conditions: NBD labeled peptide 500 nM
# Description: The binding of 2D-GPA to the membrane of the FHK12 bacteria is a prerequisite for the interaction between the peptide and the GPA ToxR construct. In order to verify this binding, the bacteria were observed under a confocal microscope in the absence or presence of a NBD labeled 2D-GPA peptide at a 500 nM concentration. Experiments were done as follows: FHK12 bacteria were diluted 1:10000 and incubated with NBD labeled 2D-GPA, final concentration of 500 nM, for 30 seconds. Samples were fixed with Glutaraldehyde at a final concentration of 0.001% for 30 seconds, centrifuged and washed 3 times with fresh PBS. Confocal images were obtained using an Olympus IX70 FV500 confocal laser-scanning microscope. […] The confocal images were obtained at 12-bit resolution.
# [4] = tested on: ToxR GPA (GPA transmembrane domain); experiment: ToxR GPA heterodimer formation (β-galactosidase reporter); format: cell-based
# Description: The ToxR GPA plasmid construct is a simple and robust method for detecting homodimerization of transmembrane domains in vivo (Langosch, D., et al., 1996, J. Mol. Biol. 263: 525-530). The detection is done through the signal of a β-galactosidase reporter gene. Heterodimerization can be detected through addition of an exogenous peptide. […] The 2D-GPA peptide of SEQ ID NO:11 was exogenously added to the system in increasing doses (0.5-20 μM; FIG. 5). […] The inhibition was calculated as follows: I is the inhibitory ability of the peptide, Apeptide is the activity of ToxR-GPA in the presence of the peptide, Amax is the maximal activity of ToxR-GPA without peptide, and Abaseline is the baseline activity of the monomer A16 plasmid, a plasmid containing a peptide which consists of 16 amino acids all of which are alanine (Langosch, D., et al., 1996, J. Mol. Biol. 263: 525-530).
# IC50 was calculated by fitting normalized data to the Langmuir equation (equation 3) in the Origin 6.0 commercial program.
# Were A represents ToxR-GPA transcription factor, B represents the exogenous peptide, I represents inhibition of beta-galactosidase activity (1-activity) and K is a scaling constant.
# [5] = tested on: Tar-1 TM domain (ToxR-MalE chimera); conditions: different concentrations of exogenous peptide, FIG. 9
# Description: The ToxR transcription activator can be used successfully to assess weak protein-protein interactions within the E. coli membrane. A Tar-1 TM domain encoding the DNA cassette was grafted between the ToxR transcription activator and the maltose binding protein in the ToxR-MalE plasmid. The plasmid was then transformed into E. coli FHK12 cells, which contain β-galactosidase, under the control of a ctx promoter. Dimerization of the TM domains, in this system, results in association and activation of the ToxR transcription activator, which then becomes active and is able to bind the ctx promoter. Quantification of the amount of homo-dimerization was done by measuring the activity of the β-galactosidase reporter gene and by normalizing it to the cell content (OD590) (miller units)
# The ability of the Tar-1 peptides to disrupt the proper dimerization of the wild-type transmembrane (TM) domain was thus investigated by using the ToxR system. This TM assembly system can assess the dimerization of a specific TM domain grafted between the ToxR transcription activator and the maltose binding protein, MalE. […] The TM-TM interactions were monitored by measuring the activity of β-galactosidase in the presence of different concentrations of exogenous Tar-1 analog peptides.
# Tar-1 all-L NBD peptide = Tar-1 all-L NBD peptide (Escherichia coli, UniProt P07017); conditions: donor Tar-1 all-L NBD peptide; acceptor-to-lipid ratio of 1:7500; PE/PG SUV
# Description: To investigate the direct interaction between the two enantiomers of Tar-1 in an isolated in vitro system, fluorescence energy transfer (FRET) between fluorescently labeled Tar-1 wild-type peptide and its diastereomeric analog was measured. The assay was performed in a model lipid environment of small unilamellar vesicles (SUV) composed of negatively charged PE/PG lipids (7:3 w/w). This phospholipid composition is typical of the E. coli inner membrane. The Tar-1 peptides were labeled with NBD as the donor fluorophore or rhodamine-TAMRA as the acceptor fluorophore, and FRET was measured.
# [6] = tested on: HIV1 gp41 mediated viral fusion; conditions: literature; cited from earlier work
compound,measurement,setting,value
O=C(N[C@H](CO)[C@H](O)c1ccc([N+](=O)[O-])cc1)C(Cl)Cl [chloramphenicol],cell density (growth) of the bacteria,CP362 containing pNT201,zero growth
"AVGIGALF [8-mer wild-type control peptide, reference compound]",inhibition of HIV-1 mediated cell-cell fusion,[1],completely devoid of inhibitory effect
AVGIGALFLGFLG [reference compound],inhibition of HIV-1 mediated cell-cell fusion,[1],completely devoid of inhibitory activity
AVGIGALFLGFLGAAGSTMGARSMTLTVQARQL [IFFA],association with wt-fusion peptide (energy transfer),[2],associate with the wt-fusion peptide
same,concentration showing significant inhibitory effect on cell-fusion,[1]; FIG. 2,10 ng/mL
same,inhibition compared with the wild-type peptide,[1],identical to that of the wild-type (wt) fusion peptide
AVGIGALFLGFLGAAGSTMGARSMTLTVQARQL [wt-fusion peptide],binding to T-cells,activated T-cells,high affinity binding to T-cells
"D-L^669, W^670-DP178 [[D-LW]-DP178]",inhibition compared with the wild-type peptide,[1],more active than the wild-type DP178
same,inhibition of HIV-1 mediated cell-cell fusion,[1],inhibited the fusion
"D-S^649, Q^650-DP178 [[D-SQ]-DP178]",inhibition of HIV-1 mediated cell-cell fusion,[1],completely inactive
"FFGAVIGTIALGVATSAQITAGIALAEAREAKR [fusion peptide of Sendai virus, reference compound]",inhibition of HIV-1 mediated cell-cell fusion,[1],completely devoid of inhibitory activity
"ITLIIFGVMAGVIGT [2D-GPA, GPA transmembrane domain analog, L-valines at positions 80 and 84 replaced by their D-enantiomer]",effect on expression levels of the ToxR GPA construct,[3],no significant differences were detected
same,fluorescence energy transfer with wt-GPA,wt-GPA,fluorescence energy transfer increased
same,localization in FHK12 bacteria,FHK12 bacterial membrane,localized in the bacterial membrane
same,inhibition of ToxR GPA homodimer signal,[4]; exogenous peptide 0.5-20 μM,concentration dependent inhibitory effect
same,IC50,"[4]; extrapolated from the fit to Langmuir equation, read-out: IC50 of the interaction with the integral GPA transmembrane domain",290 nM
"KKITLIIFGVMAGVIGT (also: D-amino acids, which not given here) [SEQ ID NO:12, another diastereomeric GPA peptide]",effect on expression levels of the ToxR GPA construct,[3],did not affect the expression levels
"KKITLIIFGVMAGVIGT [all L GPA, reference compound]",IC50,"[4]; previous all L and all D GPA results fitted to this model, read-out: IC50 of the interaction with the GPA transmembrane domain",360 nM
"KKKMVLGVFALLQLISGSLKK (KKKMVLGVFALLQLISGSLKK-NH2; also: D-amino acids, which not given here) [Tar-1 diastereomer]",inhibition of Tar-1 TM domain dimerization (β-galactosidase activity),[5],interfered with the proper dimerization
same,energy transfer,Tar-1 all-L NBD peptide,about 30%
"KKKMVLGVFALLQLISGSLKK [Tar-1 all-L, reference compound]",inhibition of Tar-1 TM domain dimerization (β-galactosidase activity),[5]; listed as Tar-1 all-L peptide,inhibition profile similar to its diastereomeric counterpart
enfuvirtide,inhibition of viral fusion,[6],competent inhibitors of viral fusion
